Assay results reported in ChEMBL document CHEMBL4619704, “Structural determinants of affinity and selectivity in the binding of inhibitors to histone deacetylase 6” (Bioorg Med Chem Lett, 2020).
Each block holds one compound with its values, some of them ahead of it.

Key:
[1] = target: T1, Protein deacetylase HDAC6 (Homo sapiens, UniProt Q9UBN7); assay: Inhibition of human HDAC6 (unknown origin)
T1 sequence (Q9UBN7 whole entry): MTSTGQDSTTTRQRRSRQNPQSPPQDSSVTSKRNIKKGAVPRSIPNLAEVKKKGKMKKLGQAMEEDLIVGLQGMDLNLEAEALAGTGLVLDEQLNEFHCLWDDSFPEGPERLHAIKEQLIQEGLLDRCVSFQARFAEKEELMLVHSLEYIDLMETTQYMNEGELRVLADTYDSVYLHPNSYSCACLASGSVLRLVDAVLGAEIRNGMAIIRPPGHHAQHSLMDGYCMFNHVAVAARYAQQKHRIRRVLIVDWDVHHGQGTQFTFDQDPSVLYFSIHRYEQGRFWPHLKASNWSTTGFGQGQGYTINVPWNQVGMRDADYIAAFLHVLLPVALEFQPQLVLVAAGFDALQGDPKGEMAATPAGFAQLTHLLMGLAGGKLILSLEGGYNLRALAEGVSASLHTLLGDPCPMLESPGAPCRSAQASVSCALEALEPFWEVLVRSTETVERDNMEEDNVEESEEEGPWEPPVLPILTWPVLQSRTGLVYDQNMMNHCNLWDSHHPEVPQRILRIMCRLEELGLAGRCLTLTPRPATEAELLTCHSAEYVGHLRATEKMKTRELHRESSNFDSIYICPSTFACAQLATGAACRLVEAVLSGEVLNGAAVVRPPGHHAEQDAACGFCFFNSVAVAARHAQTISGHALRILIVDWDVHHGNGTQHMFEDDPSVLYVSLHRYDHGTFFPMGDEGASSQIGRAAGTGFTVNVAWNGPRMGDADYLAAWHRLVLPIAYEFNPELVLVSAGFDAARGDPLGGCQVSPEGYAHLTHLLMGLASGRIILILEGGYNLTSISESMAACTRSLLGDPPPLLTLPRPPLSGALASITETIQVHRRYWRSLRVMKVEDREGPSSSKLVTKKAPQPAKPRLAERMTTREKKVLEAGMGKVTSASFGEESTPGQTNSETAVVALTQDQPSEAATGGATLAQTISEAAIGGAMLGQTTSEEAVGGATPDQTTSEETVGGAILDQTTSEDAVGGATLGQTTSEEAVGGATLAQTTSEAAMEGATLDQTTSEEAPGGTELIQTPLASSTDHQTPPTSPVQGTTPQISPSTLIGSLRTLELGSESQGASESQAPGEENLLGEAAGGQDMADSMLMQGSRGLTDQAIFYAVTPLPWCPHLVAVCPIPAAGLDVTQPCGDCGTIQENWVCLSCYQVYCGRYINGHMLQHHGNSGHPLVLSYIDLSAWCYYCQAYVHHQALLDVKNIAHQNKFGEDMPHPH

Histone deacetylase 1 [2] = target: T2, Histone deacetylase 1 (Homo sapiens, UniProt Q13547); assay: Inhibition of HDAC1 (unknown origin)
[3] = target: T1, Protein deacetylase HDAC6; assay: Inhibition of HDAC6 (unknown origin) using acetyl-lysine tripeptide as substrate preincubated for 24 hrs followed by substrate addition and measured after 30 mins by microtiter plate reader analysis
Histone deacetylase 1 [4] = target: T2, Histone deacetylase 1; assay: Inhibition of C-terminal Flag-tagged HDAC1 (unknown origin) expressed in HEK293 cells or Sf21 cells using Ac-RHK(Ac)K(Ac)-AMC peptide as substrate measured after 180 mins by fluorescence based assay
Histone deacetylase 1 [5] = target: T2, Histone deacetylase 1; assay: Inhibition of C-terminal Flag-tagged HDAC1 (unknown origin) expressed in HEK293 cells or Sf21 cells using Ac-NH-GGK(Ac)-AMC peptide as substrate measured after 180 mins by fluorescence based assay

T2 sequence (Q13547 whole entry): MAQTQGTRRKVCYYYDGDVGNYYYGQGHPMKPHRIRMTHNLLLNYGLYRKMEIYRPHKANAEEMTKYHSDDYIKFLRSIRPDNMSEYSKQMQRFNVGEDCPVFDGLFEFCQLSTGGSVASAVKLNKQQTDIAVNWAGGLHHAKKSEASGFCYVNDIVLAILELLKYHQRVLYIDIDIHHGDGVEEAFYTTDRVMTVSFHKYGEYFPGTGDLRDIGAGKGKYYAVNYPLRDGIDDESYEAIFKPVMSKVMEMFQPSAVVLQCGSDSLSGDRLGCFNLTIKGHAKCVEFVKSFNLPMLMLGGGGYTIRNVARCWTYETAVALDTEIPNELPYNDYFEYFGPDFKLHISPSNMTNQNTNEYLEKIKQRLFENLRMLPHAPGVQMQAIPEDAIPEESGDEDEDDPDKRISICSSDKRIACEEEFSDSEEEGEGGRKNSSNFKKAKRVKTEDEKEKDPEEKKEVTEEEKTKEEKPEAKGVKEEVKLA

IC50 [1]: 1400 nM
Structure (SMILES): NCCCNCCCCCC(=O)C(F)(F)F

IC50 (Histone deacetylase 1 [2]): 780 nM
IC50 [3]: 3 nM
Structure (SMILES): O=C(NO)c1cnc(NC2(c3ccccc3)CCC(F)(F)CC2)nc1

IC50 (Histone deacetylase 1 [4]): 877 nM
IC50 (Histone deacetylase 1 [5]): 43 nM
Structure (SMILES): CN(C)Cc1ccc(S(=O)(=O)n2ccc(/C=C/C(=O)NO)c2)cc1 [RESMINOSTAT]
